Measurements as given in patent US20070128217A1 (priority 2003, published 2007).

Assays:
[1] = test system: control sera (pooled serum of ten healthy LUMC hospital workers; commercial negative donor pooled serum from the Dutch bloodbank); type: binding, human; set-up: Binding of Control serum LUMC to linear peptides / Binding of Control serum Blood-bank to linear peptides / Binding of Control serum LUMC to looped peptides / Binding of Control Serum Blood-Bank to Looped peptides / Binding of Control serum LUMC to linear peptides of the protein M of SARS-CoV Urbani / Binding of Control serum Blood-bank to linear peptides of the protein M of SARS-CoV Urbani / Binding of Control serum LUMC to looped peptides of the protein M of SARS-CoV Urbani / Binding of Control Serum Blood-Bank to Looped peptides of the protein M of SARS-CoV Urbani: unit not given here
[2] = test system: rabbit serum obtained by immunizing a rabbit with the SARS-CoV strain Frankfurt 1; type: binding; set-up: Binding of a rabbit serum to linear peptides / Binding of a rabbit serum to looped peptides / Rabbit serum linear peptides / Rabbit serum looped peptides / Binding of a rabbit serum to linear peptides of protein N of SARS-CoV Urbani (Rabbit serum linear peptides) / Binding of a rabbit serum to looped/cyclic peptides of protein N of SARS-CoV Urbani (Rabbit serum looped peptides): unit not given here

Sequence | Binding of Control Serum Blood-Bank to Looped peptides of the protein M of SARS-CoV Urbani [1] | Binding of Control serum Blood-bank to linear peptides of the protein M of SARS-CoV Urbani [1] | Binding of Control serum LUMC to linear peptides of the protein M of SARS-CoV Urbani [1] | Binding of Control serum LUMC to looped peptides of the protein M of SARS-CoV Urbani [1] | Recognition of the peptide by the rabbit serum [2] | Binding of Control Serum Blood-Bank to Looped peptides [1] | Binding of Control serum Blood-bank to linear peptides [1] | Binding of Control serum LUMC to linear peptides [1] | Binding of Control serum LUMC to looped peptides [1] | Binding of a rabbit serum to linear peptides [2] | Binding of a rabbit serum to looped peptides [2] | Rabbit serum linear peptides [2] | Rabbit serum looped peptides [2]
ADNGTITVEELKQLL | 0.5 | 0.7 | 0.5 | 0.7 | recognized |  |  |  |  |  |  |  | 
AMDPIYDEPTTTTSV |  |  |  |  |  | 0.7 | 0.8 | 0.6 | 0.7 | 0.1 | 0.4 |  | 
ANPAMDPIYDEPTTT |  |  |  |  |  | 0.4 | 0.4 | 0.3 | 0.4 | 0.1 | 0.4 |  | 
ASQRVGTDSGFAAYN | 0.7 | 0.8 | 0.5 | 0.8 |  |  |  |  |  |  |  | 0.4 | 0.1
AYCCNIVNVSLVKPT |  |  |  |  |  | 0.9 | 0.9 | 0.9 | 0.8 | 0.3 | 0.2 |  | 
CVRGTTVLLKEPCPS |  |  |  |  |  | 0.9 | 0.8 | 0.7 | 0.9 |  |  | 0.5 | 0.5
DANYFVCWHTHNYDY |  |  |  |  |  | 0.5 | 0.8 | 0.8 | 1.0 | 0.1 | 0.5 |  | 
DGISTPKLKEDYQIG |  |  |  |  |  | 0.3 | 0.5 | 0.6 | 0.3 | 0.1 | 0.4 |  | 
DNGTITVEELKQLLE | 0.4 | 0.7 | 0.8 | 0.7 | recognized |  |  |  |  |  |  |  | 
DNKFALTCTSTHFAF |  |  |  |  |  | 0.6 | 0.7 | 0.6 | 0.8 |  |  | 0.7 | 0.6
DPIYDEPTTTTSVPL |  |  |  |  |  | 0.8 | 0.5 | 0.5 | 0.7 | 0.1 | 0.5 |  | 
